This passage reports IC50 results from patent US8541588B2, “Sulfonamide derivatives” (Pfizer Limited, priority 2009, dated 2013).

Bounds are passed on as bounds.

T1 sequence (Q15858 whole entry): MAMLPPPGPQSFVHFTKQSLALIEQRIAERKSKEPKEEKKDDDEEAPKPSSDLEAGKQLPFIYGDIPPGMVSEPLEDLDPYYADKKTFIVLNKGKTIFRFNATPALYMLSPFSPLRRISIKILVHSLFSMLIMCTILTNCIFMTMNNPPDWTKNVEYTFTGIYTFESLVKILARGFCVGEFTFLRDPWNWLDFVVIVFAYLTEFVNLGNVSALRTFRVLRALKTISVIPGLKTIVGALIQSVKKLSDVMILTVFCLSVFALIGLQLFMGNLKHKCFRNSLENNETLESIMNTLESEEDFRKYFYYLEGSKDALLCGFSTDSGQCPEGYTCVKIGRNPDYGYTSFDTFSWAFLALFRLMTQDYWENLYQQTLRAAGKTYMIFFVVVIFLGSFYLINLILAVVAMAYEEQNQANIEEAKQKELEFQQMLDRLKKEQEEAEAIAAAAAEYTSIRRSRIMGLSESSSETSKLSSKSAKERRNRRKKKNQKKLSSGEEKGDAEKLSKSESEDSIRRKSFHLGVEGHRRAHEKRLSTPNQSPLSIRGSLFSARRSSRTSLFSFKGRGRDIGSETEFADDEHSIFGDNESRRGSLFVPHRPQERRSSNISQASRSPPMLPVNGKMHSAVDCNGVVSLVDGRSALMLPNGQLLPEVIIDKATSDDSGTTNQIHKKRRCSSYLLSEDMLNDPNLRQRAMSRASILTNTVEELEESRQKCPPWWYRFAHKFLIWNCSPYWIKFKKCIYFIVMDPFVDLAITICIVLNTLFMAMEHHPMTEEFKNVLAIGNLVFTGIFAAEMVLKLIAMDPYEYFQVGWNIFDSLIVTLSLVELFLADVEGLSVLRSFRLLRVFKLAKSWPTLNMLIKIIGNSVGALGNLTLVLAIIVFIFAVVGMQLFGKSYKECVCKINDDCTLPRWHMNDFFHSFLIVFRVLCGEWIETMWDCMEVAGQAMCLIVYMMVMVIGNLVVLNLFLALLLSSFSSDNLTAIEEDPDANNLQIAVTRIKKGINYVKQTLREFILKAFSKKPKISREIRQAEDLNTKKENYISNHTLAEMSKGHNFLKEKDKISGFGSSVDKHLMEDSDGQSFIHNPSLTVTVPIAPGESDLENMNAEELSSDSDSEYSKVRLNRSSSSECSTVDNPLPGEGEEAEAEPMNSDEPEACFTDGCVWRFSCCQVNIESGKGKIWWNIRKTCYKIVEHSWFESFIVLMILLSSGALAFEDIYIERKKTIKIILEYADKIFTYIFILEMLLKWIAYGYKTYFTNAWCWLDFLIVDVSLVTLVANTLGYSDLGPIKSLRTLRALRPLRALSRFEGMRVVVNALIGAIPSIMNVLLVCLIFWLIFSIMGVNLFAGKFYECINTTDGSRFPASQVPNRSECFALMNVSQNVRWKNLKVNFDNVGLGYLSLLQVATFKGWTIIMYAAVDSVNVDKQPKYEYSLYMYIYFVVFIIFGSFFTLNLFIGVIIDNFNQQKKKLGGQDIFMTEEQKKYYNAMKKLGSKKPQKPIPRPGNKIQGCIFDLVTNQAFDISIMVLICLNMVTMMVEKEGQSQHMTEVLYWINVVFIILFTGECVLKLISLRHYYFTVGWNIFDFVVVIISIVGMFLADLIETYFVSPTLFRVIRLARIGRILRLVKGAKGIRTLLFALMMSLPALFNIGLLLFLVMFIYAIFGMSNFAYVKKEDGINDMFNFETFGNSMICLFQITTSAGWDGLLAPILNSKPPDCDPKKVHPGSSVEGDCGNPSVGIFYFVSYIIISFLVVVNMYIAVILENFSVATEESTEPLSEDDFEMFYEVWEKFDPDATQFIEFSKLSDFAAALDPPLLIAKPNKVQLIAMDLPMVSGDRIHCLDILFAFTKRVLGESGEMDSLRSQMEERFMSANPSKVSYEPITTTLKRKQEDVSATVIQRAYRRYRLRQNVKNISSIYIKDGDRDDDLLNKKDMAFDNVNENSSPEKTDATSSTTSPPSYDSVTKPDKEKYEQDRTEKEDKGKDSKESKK

One test addresses T1, Nav1.7 (or SCN9A) channel; HEK cells stably transfected with hSCN9A (Homo sapiens, UniProt Q15858).
T1 construct: expressed in transfected cells
The experiment in a line: Nav1.7 block, PatchXpress 7000 automated whole-cell voltage clamp, estimated IC50 (EIC50). The format is cell-based. Conditions: PatchXpress platform; hSCN9A HEK cells held at V1/2 of inactivation; estimated IC50.
Regarding `CC(C)(C)n1nc(C(F)(F)F)cc1-c1ccc(Oc2ccc(S(=O)(=O)Nc3nccs3)cc2F)cc1` [Example 245, 4-[4-(2-tert-butyl-5-trifluoromethyl-2H-pyrazol-3-yl)-phenoxy]-3-fluoro-N-thiazol-2-yl-benzenesulfonamide], the IC50 is 1040 nM. In the case of `Cc1ccc(-c2nc(N(C)C)ncc2Oc2ccc(S(=O)(=O)Nc3ncns3)cc2C#N)cc1` [Example 9, 3-cyano-4-{[2-(dimethylamino)-4-(4-methylphenyl)pyrimidin-5-yl]oxy}-N-1,2,4-thiadiazol-5-ylbenzenesulfonamide], the IC50 is 3500 nM. Regarding `O=S(=O)(Nc1ncns1)c1ccc(Oc2ccccc2-c2ccccc2)cc1Cl` [Example 263, 4-(biphenyl-2-yloxy)-2-chloro-N-1,2,4-thiadiazol-5-ylbenzenesulfonamide], the IC50 is 1440 nM. For the molecule `COc1cc(S(=O)(=O)Nc2ncns2)ccc1Oc1ccn(Cc2ccc(Cl)cc2)n1` [Example 259, 4-{[1-(4-chlorobenzyl)-1H-pyrazol-3-yl]oxy}-3-methoxy-N-1,2,4-thiadiazol-5-ylbenzenesulfonamide], the IC50 was 16500 nM. On to `Cc1cccc(-c2cccc(F)c2)c1Oc1ccc(S(=O)(=O)Nc2ncns2)cc1C#N` [Example 38, 3-cyano-4-[(3′-fluoro-3-methylbiphenyl-2-yl)oxy]-N-1,2,4-thiadiazol-5-ylbenzenesulfonamide], for which the IC50 is 15500 nM.

Regarding `N#Cc1cc(S(=O)(=O)Nc2ncns2)ccc1Oc1nccnc1-c1ccccc1` [Example 20, 3-cyano-4-[(3-phenylpyrazin-2-yl)oxy]-N-1,2,4-thiadiazol-5-ylbenzenesulfonamide], the IC50 is more than 10000 nM. Still for that read-out and setting: then `COCc1ccc(Oc2ccc(S(=O)(=O)Nc3nccs3)cc2F)c(-c2ccnn2C)c1` [Example 234, 3-fluoro-4-(4-(methoxymethyl)-2-(1-methyl-1H-pyrazol-5-yl)phenoxy)-N-(thiazol-2-yl)benzenesulfonamide], with 90 nM.

The same test, now with this note: estimated IC50; hSCN9A HEK cells, PatchXpress platform; Examples 283-814.
For `O=S(=O)(Nc1nccs1)c1cc(F)c(Oc2ccc(OC(F)(F)F)cc2-c2cn[nH]c2)cc1F` [Example 677, 2,5-difluoro-4-[2-(1H-pyrazol-4-yl)-4-(trifluoromethoxy)phenoxy]-N-1,3-thiazol-2-ylbenzenesulfonamide], the IC50 is 12 nM. With `Nc1[nH]ncc1-c1cc(Cl)ccc1Oc1cc(F)c(S(=O)(=O)Nc2ncc(Cl)s2)cc1F` [Example 467, 4-[2-(5-amino-1H-pyrazol-4-yl)-4-chlorophenoxy]-N-(5-chloro-1,3-thiazol-2-yl)-2,5-difluorobenzenesulfonamide], the IC50 was 9.6 nM. Regarding `N#Cc1cc(S(=O)(=O)Nc2nccs2)ccc1Oc1ccc(Cl)cc1CN1CCC(O)C1` (stereo not drawn) [Example 357, 4-{4-chloro-2-[(3-hydroxypyrrolidin-1-yl)methyl]phenoxy}-3-cyano-N-1,3-thiazol-2-ylbenzenesulfonamide], the IC50 was 390 nM. On the same count and under the same terms, the value for `O=S(=O)(Nc1ncns1)c1cc(F)c(Oc2ccc(C(F)(F)F)cc2-c2cnccn2)cc1F` [Example 632, 2,5-difluoro-4-[2-pyrazin-2-yl-4-(trifluoromethyl)phenoxy]-N-1,2,4-thiadiazol-5-ylbenzenesulfonamide] was 100 nM; that for `Cn1nccc1-c1cc(Cl)ccc1Oc1ccc(S(=O)(=O)Nc2ncc(F)cn2)cc1C#N` [Example 465, 4-[4-chloro-2-(1-methyl-1H-pyrazol-5-yl)phenoxy]-3-cyano-N-(5-fluoropyrimidin-2-yl)benzenesulfonamide] was 1000 nM; that for `CCOCn1nncc1-c1cc(Cl)ccc1Oc1ccc(S(=O)(=O)Nc2nccs2)cc1C#N` [Example 323, 4-{4-chloro-2-[1-(ethoxymethyl)-1H-1,2,3-triazol-5-yl]phenoxy}-3-cyano-N-1,3-thiazol-2-ylbenzenesulfonamide] was more than 300 nM. Take `N#Cc1cc(S(=O)(=O)Nc2ccc(F)cn2)ccc1Oc1ccc(CN2CCC2)c(F)c1` [Example 566, 4-[4-(azetidin-1-ylmethyl)-3-fluorophenoxy]-3-cyano-N-(5-fluoropyridin-2-yl)benzenesulfonamide]: the IC50 is more than 30000 nM. In the case of `Cc1cc(C)n(-c2ccc(Oc3ccc(S(=O)(=O)Nc4nccs4)c(F)c3)cc2)n1` [Example 610, 4-[4-(3,5-Dimethyl-1H-pyrazol-1-yl)phenoxy]-2-fluoro-N-1,3-thiazol-2-ylbenzenesulfonamide], the IC50 is more than 1000 nM.

Take `CC(C)(C)n1nc(C(F)(F)F)cc1-c1ccc(Oc2ccc(S(=O)(=O)Nc3nccs3)c(F)c2)cc1` [Example 303, 4-{4-[1-tert-Butyl-3-(trifluoromethyl)-1H-pyrazol-5-yl]phenoxy}-2-fluoro-N-1,3-thiazol-2-ylbenzenesulfonamide]: the IC50 is 430 nM. `COc1cc(Oc2ccc(S(=O)(=O)Nc3ccc(F)cn3)cc2C#N)ccc1-n1cccn1` [Example 579, 3-cyano-N-(5-fluoropyridin-2-yl)-4-[3-methoxy-4-(1H-pyrazol-1-yl)phenoxy]benzenesulfonamide]: the IC50 was more than 3000 nM. Consider `N#Cc1cc(S(=O)(=O)Nc2ccc(C(F)(F)F)cn2)ccc1Oc1ccccc1-c1ccccc1` [Example 770, 4-(biphenyl-2-yloxy)-3-cyano-N-[5-(trifluoromethyl)pyridin-2-yl]benzenesulfonamide], for which the IC50 was 24000 nM. Take `CCn1nc(C(F)(F)F)cc1-c1ccc(Oc2ccc(S(=O)(=O)Nc3ncns3)cc2C#N)cc1` [Example 500, 3-cyano-4-{4-[1-ethyl-3-(trifluoromethyl)-1H-pyrazol-5-yl]phenoxy}-N-1,2,4-thiadiazol-5-ylbenzenesulfonamide]: the IC50 was 88 nM. On to `Cn1nccc1-c1cc(C#N)ccc1Oc1ccc(S(=O)(=O)Nc2nccs2)cc1F` [Example 721, 4-[4-Cyano-2-(1-methyl-1H-pyrazol-5-yl)phenoxy]-3-fluoro-N-1,3-thiazol-2-ylbenzenesulfonamide], for which the IC50 was 160 nM. For the molecule `N#Cc1cc(S(=O)(=O)Nc2ncc(Cl)s2)ccc1Oc1ccc(Cl)cc1C1CNC1` [Example 594, 4-(2-Azetidin-3-yl-4-chlorophenoxy)-N-(5-chloro-1,3-thiazol-2-yl)-3-cyanobenzenesulfonamide], the IC50 was 160 nM. On the same count and under the same terms, the value for `O=S(=O)(Nc1cscn1)c1cc(Cl)c(Oc2ccc(F)cc2-c2ccnn2CCO)cc1F` [Example 517, 5-chloro-2-fluoro-4-{4-fluoro-2-[1-(2-hydroxyethyl)-1H-pyrazol-5-yl]phenoxy}-N-1,3-thiazol-4-ylbenzenesulfonamide] was 2200 nM; that for `Nc1cc(-c2cc(OC(F)(F)F)ccc2Oc2cc(F)c(S(=O)(=O)Nc3ncns3)cc2Cl)ccn1` [Example 553, 4-[2-(2-aminopyridin-4-yl)-4-(trifluoromethoxy)phenoxy]-5-chloro-2-fluoro-N-1,2,4-thiadiazol-5-ylbenzenesulfonamide] was 1.7 nM. `CCn1nc(C(F)(F)F)cc1-c1cccc(Oc2ccc(S(=O)(=O)Nc3nccs3)cc2C#N)c1` [Example 547, 3-cyano-4-{3-[1-ethyl-3-(trifluoromethyl)-1H-pyrazol-5-yl]phenoxy}-N-1,3-thiazol-2-ylbenzenesulfonamide]: the IC50 was 120 nM. Turning to `COCc1cc(C(F)F)nn1-c1cccc(Oc2ccc(S(=O)(=O)Nc3nccs3)cc2C#N)c1` [Example 654, 3-cyano-4-{3-[3-(difluoromethyl)-5-(methoxymethyl)-1H-pyrazol-1-yl]phenoxy}-N-1,3-thiazol-2-ylbenzenesulfonamide], the IC50 was 1100 nM. Regarding `Cc1nnc(-c2ccc(Oc3ccc(S(=O)(=O)Nc4ccc(F)cn4)cc3C#N)cc2)o1` [Example 576, 3-cyano-N-(5-fluoropyridin-2-yl)-4-[4-(5-methyl-1,3,4-oxadiazol-2-yl)phenoxy]benzenesulfonamide], the IC50 is more than 3000 nM.

The test is the same for the next values; noted with them: estimated IC50; hSCN9A HEK cells, PatchXpress platform; Examples 815-1040.
Regarding `O=S(=O)(Nc1ncns1)c1cc(Cl)c(Oc2ccc(Cl)cc2-c2ccnnc2)cc1F` [Example 910, 5-chloro-4-(4-chloro-2-pyridazin-4-ylphenoxy)-2-fluoro-N-1,2,4-thiadiazol-5-ylbenzenesulfonamide], the IC50 was 12 nM. Same read-out and setting: the value for `N#Cc1cc(S(=O)(=O)Nc2ncc(Cl)s2)ccc1Oc1ccc(Cl)cc1-c1ccon1` [Example 990, 4-(4-chloro-2-isoxazol-3-ylphenoxy)-N-(5-chloro-1,3-thiazol-2-yl)-3-cyanobenzenesulfonamide] was 310 nM; that for `CCOc1nnc(NS(=O)(=O)c2ccc(Oc3ccc(Cl)cc3-c3ccnn3C)c(C#N)c2)s1` [Example 886, 4-[4-chloro-2-(1-methyl-1H-pyrazol-5-yl)phenoxy]-3-cyano-N-(5-ethoxy-1,3,4-thiadiazol-2-yl)benzenesulfonamide] was 6200 nM; that for `CCOc1n[nH]cc1-c1cc(Cl)ccc1Oc1cc(F)c(S(=O)(=O)Nc2cscn2)cc1F` [Example 984, 4-[4-chloro-2-(3-ethoxy-1H-pyrazol-4-yl)phenoxy]-2,5-difluoro-N-1,3-thiazol-4-ylbenzenesulfonamide] was 560 nM. `N#Cc1cc(S(=O)(=O)Nc2nncs2)ccc1Oc1ccc(C(F)(F)F)cc1-c1ccnnc1` [Example 946, 3-cyano-4-[2-pyridazin-4-yl-4-(trifluoromethyl)phenoxy]-N-1,3,4-thiadiazol-2-ylbenzenesulfonamide]: the IC50 is 230 nM.

Regarding `N#Cc1cc(S(=O)(=O)Nc2ncns2)ccc1Oc1ccc(Cl)cc1-c1cccc(CN2CC(CO)(CO)C2)c1` [Example 867, 4-[(3′-{[3,3-bis(hydroxymethyl)azetidin-1-yl]methyl}-5-chlorobiphenyl-2-yl)oxy]-3-cyano-N-1,2,4-thiadiazol-5-ylbenzenesulfonamide], the IC50 was 1.4 nM. On to `CSc1nc(NS(=O)(=O)c2ccc(Oc3ccc(Cl)cc3-c3ccnn3C)c(C#N)c2)ns1` [Example 893, 4-[4-chloro-2-(1-methyl-1H-pyrazol-5-yl)phenoxy]-3-cyano-N-[5-(methylthio)-1,2,4-thiadiazol-3-yl]benzenesulfonamide], for which the IC50 was 3800 nM.
